Experimental data as given in the NIST ThermoML archive (doi:10.1016/j.jct.2016.04.003).

Test: xn = mol fraction of the nth substance listed
Conditions: for surface tension liquid-gas: Drop volume; for viscosity / speed of sound / mass density: 99 kPa, Liquid; for viscosity: Capillary tube (Ostwald / Ubbelohde) method; for speed of sound: Frequency=3 MHz, Sing-around technique in a fixed-path interferometer; for mass density: Vibrating tube method

CCCC[n+]1ccccc1.F[B-](F)(F)F [1-butylpyridinium tetrafluoroborate] + O
Conditions | mass density [kg/m3] | speed of sound [m/s] | surface tension liquid-gas [mN/m] | viscosity [mPa·s]
293.15 K, x1 = 0.0115 | – | – | 57.1 | –
293.15 K, x1 = 0.0165 | 1028.6 | 1539 | – | –
293.15 K, x1 = 0.0185 | – | – | 54.3 | –
293.15 K, x1 = 0.0271 | – | – | 52.5 | –
293.15 K, x1 = 0.0372 | – | – | 51.3 | –
293.15 K, x1 = 0.0379 | 1058 | 1572.7 | – | –
293.15 K, x1 = 0.0456 | – | – | 50.7 | –
293.15 K, x1 = 0.047 | – | – | – | 1.379
293.15 K, x1 = 0.0863 | 1100.2 | 1606.7 | – | –
293.15 K, x1 = 0.0942 | – | – | 49.2 | –
293.15 K, x1 = 0.095 | – | – | – | 1.806
293.15 K, x1 = 0.101 | 1109.3 | 1612.3 | – | –
293.15 K, x1 = 0.134 | 1125.6 | 1620.9 | – | –
293.15 K, x1 = 0.1907 | – | – | 48.7 | –
293.15 K, x1 = 0.2001 | – | – | – | 3.439
293.15 K, x1 = 0.243 | 1158.2 | 1630 | – | –
293.15 K, x1 = 0.2846 | – | – | 48.3 | –
293.15 K, x1 = 0.289 | 1167 | 1629.4 | – | –
293.15 K, x1 = 0.2912 | – | – | – | 5.459
293.15 K, x1 = 0.34 | – | – | 48.3 | –
293.15 K, x1 = 0.3456 | 1175.6 | 1627.7 | – | –
293.15 K, x1 = 0.3866 | – | – | 48 | –
293.15 K, x1 = 0.4015 | – | – | – | 10.4
293.15 K, x1 = 0.4217 | 1184.5 | 1624.5 | – | –
293.15 K, x1 = 0.4807 | – | – | – | 15.2
293.15 K, x1 = 0.486 | – | – | 47.7 | –
293.15 K, x1 = 0.5485 | 1195.4 | 1619.7 | – | –
293.15 K, x1 = 0.5777 | – | – | 47.5 | –
293.15 K, x1 = 0.5815 | – | – | – | 23.72
293.15 K, x1 = 0.6029 | 1199 | 1618 | – | –
293.15 K, x1 = 0.6641 | – | – | – | 34.53
293.15 K, x1 = 0.6943 | – | – | 47.3 | –
293.15 K, x1 = 0.7232 | 1205.7 | 1614.9 | – | –
293.15 K, x1 = 0.7779 | – | – | 47 | –
293.15 K, x1 = 0.7855 | – | – | – | 67.74
293.15 K, x1 = 0.8005 | 1209.3 | 1613.5 | – | –
293.15 K, x1 = 0.835 | – | – | 46.8 | –
293.15 K, x1 = 0.8575 | 1211.7 | 1612.8 | – | –
293.15 K, x1 = 0.8875 | – | – | – | 121.1
293.15 K, x1 = 0.925 | – | – | 46.8 | –
293.15 K, x1 = 0.9305 | – | – | – | 149.6
293.15 K, x1 = 0.9315 | 1214.5 | 1612 | – | –
293.15 K, x1 = 0.9705 | – | – | – | 189.6
293.15 K, x1 = 1 | 1217.1 | 1611.5 | 46.9 | 220.5
303.15 K, x1 = 0.0115 | – | – | 56.4 | –
303.15 K, x1 = 0.0165 | 1025.3 | 1552 | – | –
303.15 K, x1 = 0.0185 | – | – | 54 | –
303.15 K, x1 = 0.0271 | – | – | 52.1 | –
303.15 K, x1 = 0.0372 | – | – | 51 | –
303.15 K, x1 = 0.0379 | 1053.9 | 1576.9 | – | –
303.15 K, x1 = 0.0456 | – | – | 50.4 | –
303.15 K, x1 = 0.047 | – | – | – | 1.082
303.15 K, x1 = 0.0863 | 1094.8 | 1600.1 | – | –
303.15 K, x1 = 0.0942 | – | – | 49.1 | –
303.15 K, x1 = 0.095 | – | – | – | 1.333
303.15 K, x1 = 0.101 | 1103.7 | 1603.2 | – | –
303.15 K, x1 = 0.134 | 1119.5 | 1608.1 | – | –
303.15 K, x1 = 0.1907 | – | – | 48.5 | –
303.15 K, x1 = 0.2001 | – | – | – | 2.475
303.15 K, x1 = 0.243 | 1151.3 | 1610.7 | – | –
303.15 K, x1 = 0.2846 | – | – | 48.1 | –
303.15 K, x1 = 0.289 | 1159.9 | 1608.8 | – | –
303.15 K, x1 = 0.2912 | – | – | – | 4.217
303.15 K, x1 = 0.34 | – | – | 47.9 | –
303.15 K, x1 = 0.3456 | 1168.3 | 1606.1 | – | –
303.15 K, x1 = 0.3866 | – | – | 47.6 | –
303.15 K, x1 = 0.4015 | – | – | – | 7.329
303.15 K, x1 = 0.4217 | 1177.2 | 1602.7 | – | –
303.15 K, x1 = 0.4807 | – | – | – | 10.67
303.15 K, x1 = 0.486 | – | – | 47.3 | –
303.15 K, x1 = 0.5485 | 1188 | 1597.4 | – | –
303.15 K, x1 = 0.5777 | – | – | 47 | –
303.15 K, x1 = 0.5815 | – | – | – | 15.59
303.15 K, x1 = 0.6029 | 1191.7 | 1595.6 | – | –
303.15 K, x1 = 0.6641 | – | – | – | 22.31
303.15 K, x1 = 0.6943 | – | – | 46.7 | –
303.15 K, x1 = 0.7232 | 1198.5 | 1592.3 | – | –
303.15 K, x1 = 0.7779 | – | – | 46.5 | –
303.15 K, x1 = 0.7855 | – | – | – | 41.77
303.15 K, x1 = 0.8005 | 1202.2 | 1590.7 | – | –
303.15 K, x1 = 0.835 | – | – | 46.2 | –
303.15 K, x1 = 0.8575 | 1204.6 | 1589.7 | – | –
303.15 K, x1 = 0.8875 | – | – | – | 72.76
303.15 K, x1 = 0.925 | – | – | 46.2 | –
303.15 K, x1 = 0.9305 | – | – | – | 90.38
303.15 K, x1 = 0.9315 | 1207.6 | 1588.9 | – | –
303.15 K, x1 = 0.9705 | – | – | – | 106.5
303.15 K, x1 = 1 | 1210.3 | 1588.1 | 46.3 | 119.5
